d = 2'-deoxy (DNA)
Legend:
P-gp = molecular target: T1, P-gp (Mus musculus, UniProt P21447); assay: P-gp function in knockdown mice assessed by digoxin plasma pharmacokinetics; type: in vivo; details: iv, 1 mg/kg, digoxin 1 mg/kg injection
T1 construct: from tissue; host or cells: whole living mice (in vivo, intravenous digoxin 1 mg/kg after NC-siRNA or mdr1a-1 siRNA)
Procedure: For validation of silence efficiency in vivo, mdr1a-1 siRNA was injected via the tail vein of mice after diluted to 5, 10 and 15 nmol with saline in 200 μl. After 48 h, the mice were euthanized and the liver was collected for measurement of the P-gp protein expression using western blot. The P-gp function in gene knockdown mice was assessed using digoxin, a known P-gp substrate. NC-siRNA or mdr1a-1 siRNA was intravenously injected 2 days prior to the injection of digoxin (1mg/kg). Blood samples were collected at 5, 15, 30, min and 1, 2, 4, 6, 8, 12 hours post digoxin dose (n = 5/time-point for each group). The digoxin concentrations in samples were quantitatively analyzed by a published LC-MS/MS method.
Toxicokinetic parameters, including area under the plasma concentration-time curve (AUC), volume of distribution (Vd), clearance (CL), mean residence time (MRT) and terminal elimination half-life (t1/2), were calculated by non-compartmental analysis using WinNonlin 5.2 software (Pharsight Corporation, CA, USA). All the data were expressed as mean ± SD. Differences between groups were compared by Student’s t-test for analysis of unpaired data or one-way ANOVA. Statistical significance was accepted at P < 0.05.

BALB/C mice [1] = assay: Serum ALT and AST (TP-induced hepatotoxicity) in mice; type: in vivo; details: TP 1 mg/kg iv with P-gp modulator, 24 h after TP
Procedure: For TP plasma kinetic study and toxicological evaluation, mice were divided into four groups (n = 5 each) to collect blood and tissue samples: (1) normal + saline group; (2) 1.0 mg/kg TP + 15 nmol NC-siRNA group; (3) 1.0 mg/kg TP + 15 nmol mdr1a-siRNA group; (4) 1.0 mg/kg TP + 10 mg/kg tariquidar group. In order to avoid the complication caused by drug absorption or possible intestinal first-pass effect, TP and the inhibitor were intravenously administrated to mice. The siRNA group was intravenously injected with NC-siRNA or mdr1a-siRNA 2 days before TP dose. For TP + tariquidar group, the mice were received an intravenous tariquidar dose 20 min prior to the TP injection. Blood samples were collected at 2, 5, 10, 15, 30, 60 and 120 min after TP dosing. To assess the liver exposure of TP, liver tissue samples were collected from another set of mice at 5, 30, 60 and 120 min after dosing. Three TP groups were design for this experiment, including TP + NC-siRNA group, TP + mdr1a-siRNA group and TP + tariquidar group. The liver tissue samples were weighed and then homogenized in 10 volume (w:v) of ice-cold saline. The concentrations of TP in plasma and liver tissue were measured by a validated LC-MS/MS method. Prior to the above animal study, a preliminary experiment was performed to assess the possible differences in liver P-gp protein expression (Figure S1) and TP plasma kinetics between NC-siRNA treated mice and normal mice (with saline) (Figure S2 and supplemental Table 1). […] Therefore, NC-siRNA group was used as the control in the following animal study.
(§1) At 24 h of TP treatment, blood and liver tissue samples were collected from the mice in plasma kinetic study. Serum ALT and AST levels were determined with a CL8000 automated biochemical analyzer (Shimadzu, Japan) after serum was separated by centrifugation at 900 g for 10 min. Liver tissue samples were divided into two parts, the first half was kept at −80 °C until MDA and SOD measurements using MDA and SOD assay kits (Nanjing Jiancheng Bioengineering Institute, Nanjing, China) according to the manufacturer’s instructions. The other half was fixed with 4% paraformaldehyde solution and then dehydrated, embedded in paraffin and sectioned at a thickness of 5 μm. Four paraffin sections from each mouse were dewaxed, rehydrated and stained with hematoxylin-eosin (HE) for overall morphological evaluation. The total protein concentration was quantified by the BCA assay. Bcl-2 and Bax proteins were measured by western blot.

Bcl-2/Bax = assay: Bcl-2 and Bax expression in mouse liver (western blot); type: in vivo; details: mice, TP 1 mg/kg iv, 24 h; tariquidar and mdr1a-siRNA = given before TP
Procedure: For protein extraction, the cells or mice liver tissues were homogenized in RIPA buffer and then centrifuged at 14,000 g at 4 °C for 30 min. The supernatant was collected and the protein concentration was measured using BCA assay. The sample (50 μg protein/sample) was then loaded on 12% polyacrylamide gels and transferred to polyvinylidene difluoride membranes (Millipore, USA). After blocked by 3% bovine serum albumin, the membranes were incubated with primary antibodies and HRP-conjugated secondary antibody, and then detected using the enhanced chemiluminescence plus detection system (Molecular Device, Lmax, USA). The density of each band was quantified by using image analysis software (Science Lab 2005 Image Guage; Tokyo, Japan).
as §1, with “The other half was fixed with 4% paraformaldehyde solution and then dehydrated, embedded in paraffin and sectioned at a thickness of 5 μm. Four paraffin sections from each mouse were dewaxed, rehydrated and stained with hematoxylin-eosin (HE) for overall morphological evaluation.” left out

BALB/C mice [2] = assay: Liver histopathology (HE staining) in mice; type: in vivo; details: TP 1 mg/kg iv, 24 h, TP = NC-siRNA group, tariquidar and mdr1a-1 siRNA = given before TP
Procedure: For TP plasma kinetic study and toxicological evaluation, mice were divided into four groups (n = 5 each) to collect blood and tissue samples: (1) normal + saline group; (2) 1.0 mg/kg TP + 15 nmol NC-siRNA group; (3) 1.0 mg/kg TP + 15 nmol mdr1a-siRNA group; (4) 1.0 mg/kg TP + 10 mg/kg tariquidar group. In order to avoid the complication caused by drug absorption or possible intestinal first-pass effect, TP and the inhibitor were intravenously administrated to mice. The siRNA group was intravenously injected with NC-siRNA or mdr1a-siRNA 2 days before TP dose. For TP + tariquidar group, the mice were received an intravenous tariquidar dose 20 min prior to the TP injection. Blood samples were collected at 2, 5, 10, 15, 30, 60 and 120 min after TP dosing. To assess the liver exposure of TP, liver tissue samples were collected from another set of mice at 5, 30, 60 and 120 min after dosing. […] The concentrations of TP in plasma and liver tissue were measured by a validated LC-MS/MS method. […]
At 24 h of TP treatment, blood and liver tissue samples were collected from the mice in plasma kinetic study. Serum ALT and AST levels were determined with a CL8000 automated biochemical analyzer (Shimadzu, Japan) after serum was separated by centrifugation at 900 g for 10 min. […] The total protein concentration was quantified by the BCA assay. Bcl-2 and Bax proteins were measured by western blot.

[3] = Preliminary experiment: effect of NC-siRNA on pharmacokinetics of TP in mice; type: in vivo; details: TP 1.0 mg/kg
Procedure: Effect of NC-siRNA on pharmacokinetic of TP
Mice were divided into two groups to collect blood samples (n=5 each): (1) 1.0 mg/kg TP + saline group; (2) 1.0 mg/kg TP + 15 nmol NC-siRNA group. The siRNA group was intravenously injected with NC-siRNA 2 days before TP dose. Blood samples were collected at 2, 5, 10, 15, 30, 60 and 120 min after TP dosing. The concentrations of TP in plasma and liver were measured by a validated LC-MS/MS method.

mdr1a mRNA = assay: RNAi knockdown of mdr1a mRNA in CT26.WT cells (real-time PCR); type: cell-based, mouse; details: siRNA 80 pM with Lipofectamin 2000, 48 h after transfection
Procedure: CT26.WT cells, a mouse colon carcinoma cell line, were obtained from ATCC and maintained in RPMI-1640 supplemented with 10% fetal bovine serum. Cells were seeded to 6-well plates at a density of 5 × 10^5 cells/well and cultured for 24 h. Transfection was performed in Opti-MEM (Invitrogen, Carlsbad, CA, USA) with synthetic siRNA (80 pM) by using Lipofectamin 2000 (Invitrogen, Carlsbad, CA, USA) for 6 h and the medium was replaced with fresh RPMI-1640. This condition was optimized in our preliminary experiments based on the transfection efficiency and the cellular viability. Following incubation for 48 h, the cells were washed three times with phosphate buffered saline buffer (PBS) and total RNA and protein were collected.
Total RNA from CT26. WT cells was extracted with Trizol (Invitrogen, Carlsbad, CA, USA) according to the manufacturer’s instructions. RNA samples (1 μg) were reverse transcribed by adding oligo(dT)18 (MBI Fermentas, USA), dNTP, RNase inhibitor, and M-MLV reverse transcriptase (Takara, Japan), holding at room temperature for 10 min and incubating at 42 °C for 60 min. The samples were heated at 72 °C to inactivate enzymes for 10 min and stored at −20 °C. Real-time PCR was performed using sense and antisense primers. […] The relative amount of target mRNA was determined using the comparative threshold (Ct) method by normalizing target mRNA Ct values to those for β-actin (ΔCt). […]

T1 sequence (P21447 whole entry): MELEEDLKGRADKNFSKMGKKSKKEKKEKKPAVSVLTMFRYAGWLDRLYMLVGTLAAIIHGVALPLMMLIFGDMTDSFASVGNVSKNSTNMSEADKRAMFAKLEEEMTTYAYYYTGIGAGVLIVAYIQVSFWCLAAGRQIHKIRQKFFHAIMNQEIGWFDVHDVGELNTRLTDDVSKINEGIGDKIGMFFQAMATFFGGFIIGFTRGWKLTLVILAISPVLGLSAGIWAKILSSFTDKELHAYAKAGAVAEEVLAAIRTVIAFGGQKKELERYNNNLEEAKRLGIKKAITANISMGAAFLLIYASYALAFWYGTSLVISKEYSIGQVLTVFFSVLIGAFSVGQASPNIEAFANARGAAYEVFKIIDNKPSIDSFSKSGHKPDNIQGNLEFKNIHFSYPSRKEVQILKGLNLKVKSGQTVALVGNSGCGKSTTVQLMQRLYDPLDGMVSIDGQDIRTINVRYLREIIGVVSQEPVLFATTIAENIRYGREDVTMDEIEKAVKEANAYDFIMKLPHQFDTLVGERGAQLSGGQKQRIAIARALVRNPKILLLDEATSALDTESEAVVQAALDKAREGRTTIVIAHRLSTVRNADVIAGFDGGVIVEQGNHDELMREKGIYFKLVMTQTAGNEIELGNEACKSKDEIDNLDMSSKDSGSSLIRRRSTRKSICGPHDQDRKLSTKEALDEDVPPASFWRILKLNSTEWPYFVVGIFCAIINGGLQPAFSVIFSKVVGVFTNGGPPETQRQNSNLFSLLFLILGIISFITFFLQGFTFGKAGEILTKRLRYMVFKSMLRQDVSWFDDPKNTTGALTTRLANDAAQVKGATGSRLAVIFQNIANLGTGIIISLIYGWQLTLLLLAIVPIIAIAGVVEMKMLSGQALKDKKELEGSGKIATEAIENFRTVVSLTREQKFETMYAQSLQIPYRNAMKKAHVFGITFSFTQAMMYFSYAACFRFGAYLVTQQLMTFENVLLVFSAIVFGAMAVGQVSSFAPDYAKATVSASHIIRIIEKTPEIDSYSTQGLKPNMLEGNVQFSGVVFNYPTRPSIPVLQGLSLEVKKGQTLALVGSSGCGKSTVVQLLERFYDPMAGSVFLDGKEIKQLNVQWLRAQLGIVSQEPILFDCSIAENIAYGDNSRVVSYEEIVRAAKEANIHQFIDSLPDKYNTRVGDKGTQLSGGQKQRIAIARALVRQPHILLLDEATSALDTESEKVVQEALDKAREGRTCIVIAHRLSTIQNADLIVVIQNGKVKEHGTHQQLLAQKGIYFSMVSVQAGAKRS

Molecule: C[C@H]1O[C@@H](O[C@H]2[C@@H](O)C[C@H](O[C@H]3[C@@H](O)C[C@H](O[C@H]4CC[C@@]5(C)[C@H](CC[C@@H]6[C@@H]5C[C@@H](O)[C@]5(C)[C@@H](C7=CC(=O)OC7)CC[C@]65O)C4)O[C@@H]3C)O[C@@H]2C)C[C@H](O)[C@@H]1O [Digoxin, digoxin]
- AUC(0-t) (P-gp; NC-siRNA iv 2 days prior): 3360 ± 739 ng·h/mL
- Cmax (P-gp; NC-siRNA iv 2 days prior): 1740 ± 574 ng/mL
- MRT (P-gp; NC-siRNA iv 2 days prior): 3.7 ± 0.3 h
- Vd (P-gp; NC-siRNA iv 2 days prior): 2 ± 0.5 L/kg
- clearance (P-gp; NC-siRNA iv 2 days prior): 4.21 mL/min/kg
- half-life (P-gp; NC-siRNA iv 2 days prior): 5.7 ± 1.3 h
- AUC(0-t) (P-gp; mdr1a-1 siRNA iv 2 days prior): 8770 ± 1450 ng·h/mL
- Cmax (P-gp; mdr1a-1 siRNA iv 2 days prior): 2260 ± 267 ng/mL
- MRT (P-gp; mdr1a-1 siRNA iv 2 days prior): 3.8 ± 0.4 h
- Vd (P-gp; mdr1a-1 siRNA iv 2 days prior): 0.6 ± 0.08 L/kg
- clearance (P-gp; mdr1a-1 siRNA iv 2 days prior): 1.66 mL/min/kg
- half-life (P-gp; mdr1a-1 siRNA iv 2 days prior): 4 ± 1.4 h

Molecule: COc1cc2c(cc1OC)CN(CCc1ccc(NC(=O)c3cc(OC)c(OC)cc3NC(=O)c3cnc4ccccc4c3)cc1)CC2 [tariquidar, Tariquidar, reference compound]
- Serum ALT level, folds of the TP+NC-siRNA group (BALB/C mice [1]): 1.2 folds
- Serum AST level, folds of the TP+NC-siRNA group (BALB/C mice [1]): 1.9 folds
- Bcl-2/Bax ratio in liver (Bcl-2/Bax): markedly reduced the ratio
- Histopathological changes in liver (HE) (BALB/C mice [2]): more severe

Molecule: NC-siRNA: negative control siRNA, sense 5′-UUCUCCGAACGUGUCACGUTT-3′ (antisense ACGUGACACGUUCGGAGAATT; sugars by position and backbone not given here; 3' and 5' ends modified with methylation and cholesterol) [reference compound]
- Differences in TP plasma concentrations and kinetic parameters, NC-siRNA treated vs normal (saline) mice [3]: No significant differences

Molecule: mdr1a-2: murine mdr1a siRNA, sense 5′-r(AGA AGGAAC UAG AAG GUU CUG) d(TT)-3′ (sense AGAAGGAACUAGAAGGUUCUG; antisense CAGAACCUUCUAGUUCCUUCU; RNA, 3' dTdT, backbone and methylation of C not given here; 3' and 5' ends modified with methylation and cholesterol)
- Silencing efficiency on mdr1a mRNA (mdr1a mRNA): 51%

Molecule: mdr1a-3: murine mdr1a siRNA, sense 5′-GGCUGGACAAGCUGUGCAUGG-3′ (antisense AUGCACAGCUUGUCCAGCCAA; sugars by position and backbone not given here; 3' and 5' ends modified with methylation and cholesterol)
- Silencing efficiency on mdr1a mRNA (mdr1a mRNA): 46%

Source: paper PMC4488747, “Inhibition of P-glycoprotein Gene Expression and Function Enhances Triptolide-induced Hepatotoxicity in Mice” (Scientific Reports, 2015)
